# Measured values reported in patent publication US6800465B2, “D-hydantoinase from Ochrobactrum anthropi” (priority 2001, dated 2004).
# B1: hydantoinase: D-hydantoinase from Ochrobactrum anthropi, SEQ ID NO: 2; in Table 3 assayed in glutaraldehyde treated cells (protein, listed as Ochrobactrum anthropi)
# chain: MAKVIKGGTVITADRTFKADVLIEGEKIVAVGDNLSGDEVIDASGCYIMPGGIDPHTHLQMPFMGTYSSDDFDTGTAAALAGGTTMVVDFVLPGSEGNLLEALQEWFQKAGKARTDYSFHMAITGWNERTFNEMAEVVKRGINTFKHFMAYKGALMVNDDEMFASFQRCAELGAMPLVHAENGDIVAQLQAKLMAEGNDGPEAHAYSRPPEVEGEATNRAIMIADQAGVPLYVVHVSCEQSHEAIRRARQKGMRVFGEPLIQHLTLDESEYHNRDWDYAARRVMSPPFRDKANQDSLWAGLAAGSLQCVATDHCAFTTEQKRYGIGNFTKIPNGTGGLEERMPVLWSRGVRTGRLTPNEFVAVTSTNIAKILNIYPQKGAVLPGADADLVIWDPEATRKVSAKTQHSSIDYNVFEGFELKGLPKMTLSRGRVAFDKGNVTAEPGDGRFIEREPNGAVNRALSQWKEIVAPRKVERSAEHMPIGV
# Key:
# hydantoinase [1] = test: Effect of substrate concentration on rate of conversion by glutaraldehyde treated cells; format: biochemical, Ochrobactrum anthropi; settings: pH 8.8, 42° C.; for % Conversion: 6 hours
# Description: Incubations were in 200 mM TAPS pH 8.8, 42° C. for 6 hours, and pH adjustments were made back to normal at least every hour.
# hydantoinase [2] = test: Substrate specificity of purified recombinant hydantoinase; format: biochemical, Ochrobactrum anthropi; settings: purified recombinant enzyme from E. coli BL21, compound as substrate
# Description: E. coli BL21 containing the hydantoinase gene was grown as described in example 4.2. The cells were centrifuged and washed with 100 mM carbonate buffer pH 9.0 and resuspended in the same buffer and ruptured by sonication. The enzyme was purified as described in example 2. The purified enzyme was tested for substrate specificity with various hydantoins as substrate.
# hydantoinase [3] = test: Effect of glutaraldehyde and acetone treatment of whole cells on hydantoinase activity; format: biochemical, Ochrobactrum anthropi; settings: treated whole cells; 10 mg/ml D,L-p-hydroxyphenyl hydantoin, pH 8.5, 42° C., 4 hours; Control (buffer only) = 1
# Description: Washed cell suspension 0.5 ml aliquots of culture was treated with 0.5 ml glutaraldehyde (G.A.) final concentration 2% in phosphate buffer pH 7.0, or with 0.5 ml G.A. 2% in phosphate buffer and 1 ml acetone, or with 0.5 ml acetone alone at room temperature for 10 minutes. The treated cells were washed with 10 ml 0.9% saline and then with saline +1 mg/ml ammonium sulfate and resuspended in 1 ml 100 mM TAPS buffer pH 8.5. Resuspended cell suspensions were incubated with 10 mg/ml D,L-p-hydroxyphenyl hydantoin in 100 mM TAPS pH 8.5 (final volume 800 μl) at 42° C. for 4 hours. Reactions were terminated with 200 μl TCA 12% and assayed.
# hydantoinase [4] = test: Metal ion requirements of purified hydantoinase; format: biochemical, Ochrobactrum anthropi; parameters: Specific activity: unit not given here; settings: hydantoin as substrate, metal ion at 100 mM concentration
# Description: Purified hydantoinase was assayed with hydantoin with the addition of the various metal ions at 100 mM concentration.
# [5] = Stability of enzyme at pH 8.8, 9.3 and 9.8; format: biochemical, Ochrobactrum anthropi; settings: then assayed at pH 8.8, 42° C.
# Description: Glutaraldehyde treated cells from pH profile study were held at pH 8.8, 9.3 and 9.8 for about 4 hours. Solids were washed, resuspended in 25 mM TAPS pH 8.8 and 10 mg/ml D,L-p-hydroxyphenyl hydantoin and incubated at 42° C. for 4 hours. […] Optimum pH of activity at 8.8 in pH profile study was probably due to greater enzyme stability at pH 8.8 rather than pH 9.3 or 9.8.
# [6] = Specific activity of purified hydantoinase; format: biochemical, Ochrobactrum anthropi; settings: active band eluant from preparative native gel
# Description: Active band eluant from preparative native gel was assayed and protein determined by Pierce Microtiter assay protocol using BSA standard. Specific activity was determined at greater than 4 IU per mg of protein.
# [7] = PI value of hydantoinase by IEF-PAGE; format: physicochemical, Ochrobactrum anthropi; settings: IEF-PAGE gel, pH range of 3-9
# Description: Active band eluant from preparative native gel was run on the Phast System IEF-PAGE gel with a pH range of 3-9 using low MW protein markers and the gel was silver stained. PI of active band protein was determined at approximately 4.5.
molecule,measurement,setting,value
"O=C1NC(=O)C(c2ccc(O)cc2)N1 (racemic) [D,L-p-hydroxyphenyl hydantoin]",product formed,"hydantoinase [1]; substrate 5 mg/ml, 2¾ hr",1.9 mg/mL
same,product formed,"hydantoinase [1]; substrate 5 mg/ml, 30 min",.56 mg/mL
same,product formed,"hydantoinase [1]; substrate 5 mg/ml, 60 min",1.0 mg/mL
same,product formed,"hydantoinase [1]; substrate 5 mg/ml, 4 hr",2.1 mg/mL
same,product formed,"hydantoinase [1]; substrate 5 mg/ml, 6 hr",2.2 mg/mL
same,% Conversion,hydantoinase [1]; substrate 5 mg/ml,40%
same,product formed,"hydantoinase [1]; substrate 10 mg/ml, 2¾ hr",3.4 mg/mL
same,product formed,"hydantoinase [1]; substrate 10 mg/ml, 30 min",.75 mg/mL
same,product formed,"hydantoinase [1]; substrate 10 mg/ml, 60 min",1.4 mg/mL
same,product formed,"hydantoinase [1]; substrate 10 mg/ml, 4 hr",4.0 mg/mL
same,product formed,"hydantoinase [1]; substrate 10 mg/ml, 6 hr",4.4 mg/mL
same,% Conversion,hydantoinase [1]; substrate 10 mg/ml,40%
same,product formed,"hydantoinase [1]; substrate 20 mg/ml, 2¾ hr",4.0 mg/mL
same,product formed,"hydantoinase [1]; substrate 20 mg/ml, 30 min",.82 mg/mL
same,product formed,"hydantoinase [1]; substrate 20 mg/ml, 60 min",1.5 mg/mL
same,product formed,"hydantoinase [1]; substrate 20 mg/ml, 4 hr",6.2 mg/mL
same,product formed,"hydantoinase [1]; substrate 20 mg/ml, 6 hr",7.7 mg/mL
same,% Conversion,hydantoinase [1]; substrate 20 mg/ml,35%
same,product formed,"hydantoinase [1]; substrate 50 mg/ml, 2¾ hr",4.2 mg/mL
same,product formed,"hydantoinase [1]; substrate 50 mg/ml, 30 min",.95 mg/mL
same,product formed,"hydantoinase [1]; substrate 50 mg/ml, 60 min",1.6 mg/mL
same,product formed,"hydantoinase [1]; substrate 50 mg/ml, 4 hr",6.3 mg/mL
same,product formed,"hydantoinase [1]; substrate 50 mg/ml, 6 hr",9.2 mg/mL
same,% Conversion,hydantoinase [1]; substrate 50 mg/ml,17%
O=C1CNC(=S)N1 [2-thio hydantoin],Specific activity,hydantoinase [2],4.3 IU/mg
CC1NC(=O)NC1=O (centres unmarked) [5-methyl hydantoin],Specific activity,hydantoinase [2],10.6 IU/mg
"CC(C)=O [Acetone, acetone]",Relative Activity,hydantoinase [3],2.8
[Ca+2] [Ca (II)],Specific activity,hydantoinase [4],3.6
[Co+2] [Co (II)],Specific activity,hydantoinase [4],3.6
[Cu+2] [Cu (II)],Specific activity,hydantoinase [4],1.2
"O=C(O)CC1NC(=O)NC1=O (centres unmarked) [D,L hydantoin 5-acetic acid]",Specific activity,hydantoinase [2],1.8 IU/mg
[Fe+2] [Fe (II)],Specific activity,hydantoinase [4],9.3
same,effect on the activity of the enzyme,hydantoinase [4],stimulate the activity
[Fe+3] [Fe (III)],Specific activity,hydantoinase [4],3.8
"O=CCCCC=O [Glutaraldehyde, glutaraldehyde]",Relative Activity,hydantoinase [3],1.2
O=C1CNC(=O)N1 [Hydantoin],Specific activity,hydantoinase [2],7.5 IU/mg
[Mg+2] [Mg (II)],Specific activity,hydantoinase [4],5.2
[Mn+2] [Mn (II)],Specific activity,hydantoinase [4],7.1
same,effect on the activity of the enzyme,hydantoinase [4],stimulate the activity
[Ni+2] [Ni (II)],Specific activity,hydantoinase [4],3.6
O=C(O)CN(CCN(CC(=O)O)CC(=O)O)CC(=O)O [None (EDTA)],Specific activity,hydantoinase [4],4.8
O=c1cc[nH]c(=O)[nH]1 [Uracil],Specific activity,hydantoinase [2],1.8 IU/mg
[Zn+2] [Zn (II)],Specific activity,hydantoinase [4],1.8
"Hydroxymethyl 5,5-dimethyl hydantoin",Specific activity,hydantoinase [2],5.6 IU/mg
p-hydroxymethyl hydantoin,Specific activity,hydantoinase [2],1.9 IU/mg
B1,Relative Activities,[5]; held at pH 8.8 for about 4 hours,1.75
same,Relative Activities,[5]; held at pH 9.3 for about 4 hours,1.17
same,Relative Activities,[5]; held at pH 9.8 for about 4 hours,0.62
same,Specific activity,[6],greater than 4 IU per mg of protein
same,PI,[7],approximately 4.5
